Where a name gives a salt, the structure may show the parent alone. Read-outs that look alike come from different tables or passages of the source.
Tests used:
prolactin [1] = details: cited from earlier work
Parkinsonism = details: in vivo; cited from earlier work
[2] = tested on: 6-hydroxydopamine-lesioned rats; assay: Turning behavior in 6-hydroxydopamine-lesioned (nigro-neostriatal-lesioned) rats; assay type: in vivo, rat; details: for Latency of Effect: 1 mg./kg. (Table I); for responders at 1 mg/kg: Rattus norvegicus, read-out: % of Rats Exhibiting Turning Behavior
Method: In this test, nigro-neostriatal-lesioned rats are employed, which are prepared by the procedure of Ungerstedt and Arbuthnott, Brain Res, 24, 485 (1970). A compound having dopamine agonist activity causes the rats to turn in circles contralateral to the side of the lesion. After a latency period, which varies from compound to compound, the number of turns is counted over a 15-minute period.
The compounds were dissolved in water and the aqueous solution injected into the rat by the intraperitoneal route.

prolactin [3] = assay: Inhibition of serum prolactin in reserpine-treated male rats; assay type: in vivo, Sprague-Dawley rat; design: Serum Prolactin Level: unit not given here; details: for Serum Prolactin Level: reserpine-pretreated, controls: Exp. 1 30.4 ± 3.4, Exp. 2 55.2 ± 4.1, Exp. 3 42.3 ± 7.3; for inhibition in vivo at 0.05 mg/kg: Rattus norvegicus, read-out: Percent Inhibition of Serum Prolactin
Method: Adult male rats of the Sprague-Dawley strain weighing about 200 g. were housed in an air-conditioned room with controlled lighting (lights on 6 a.m.-8 p.m.) and fed lab chow and water ad libitum. Each rat received an intraperitoneal injection of 2.0 mg. of reserpine in aqueous suspension 18 hours before administration of the ergoline derivative. The purpose of the reserpine was to keep prolactin levels uniformly elevated. The compounds under test were dissolved in 10 percent ethanol at a concentration of 10 mcg/ml. and were injected intraperitoneally at a standard dose of 50 mcg/kg. Each compound was administered to a group of 10 rats, and a control group of 10 intact males received an equivalent amount of 10 percent ethanol. One hour after treatment all rats were killed by decapitation, and 150 μl aliquots of serum were assayed for prolactin. The results were evaluated statistically using Student's "t" test to calculate the level of significance, "p", of the changes in prolactin level.

serotonin = assay: Serotonin agonism
dopamine receptors = details: cited from earlier work
[4] = 50 mcg/kg IP, 1 hour after treatment

Compound | Duration of Effect ([2]; IP, 1 mg./kg.) | Latency of Effect ([2]; IP) [min] | responders at 1 mg/kg ([2]; ip) [%] | inhibition in vivo at 0.05 mg/kg (prolactin [3]; ip, 1 h) [%] | also measured
CC(C)C[C@H]1C(=O)N2CCC[C@H]2[C@]2(O)O[C@](NC(=O)[C@@H]3C=C4c5cccc6[nH]c(Br)c(c56)C[C@H]4N(C)C3)(C(C)C)C(=O)N12 [2-bromo-α-ergokryptine] | – | – | – | – | activity as prolactin inhibitors (in words) (prolactin [1]): activity as prolactin inhibitors; usefulness in the treatment of Parkinsonism (in words) (Parkinsonism): useful in the treatment of Parkinsonism
CCCN1C[C@H](CSC)C[C@@H]2c3cccc4[nH]c(Br)c(c34)C[C@H]21 [D-2-bromo-6-n-propyl-8β-methylmercaptomethylergoline mesylate] | 1 h | 5 | 100 | 89 | Serum Prolactin Level (prolactin [3]; [4]): 4.6 ± 0.4
CCN1C[C@H](CSC)C[C@@H]2c3cccc4[nH]cc(c34)C[C@H]21 [D-6-ethyl-8β-methylmercaptomethylergoline mesylate] | ≥ 2 h | 9 | 100 | 91 | Serum Prolactin Level (prolactin [3]; [4]): 3.9 ± 0.4
CN1CC(CC#N)C[C@@H]2c3cccc4[nH]cc(c34)C[C@H]21 (stereo partly drawn) [D-6-methyl-8-cyanomethylergoline] | – | – | – | – | activity as prolactin inhibitors (in words) (prolactin [1]): activity as prolactin inhibitors
CSC[C@@H]1C[C@@H]2c3cccc4[nH]cc(c34)C[C@H]2N(C)C1 [D-6-methyl-8β-methylmercaptomethylergoline mesylate, reference compound] | ~ 2 hours | 30 to 45 | 50 | 58 | –
CCCN1C[C@H](CSC)C[C@@H]2c3cccc4[nH]cc(c34)C[C@H]21 [D-6-n-Propyl-8β-methylmercaptomethylergoline] | – | – | – | – | serotonin agonist or antagonist (in words) (serotonin): serotonin agonists rather than serotonin antagonists
CCCN1CC(CSC)=C[C@@H]2c3cccc4[nH]cc(c34)C[C@H]21 [D-6-n-propyl-8-methylmercaptomethyl-8-ergolene maleate] | 1 h | 4 | 100 | 91 | Serum Prolactin Level (prolactin [3]; [4]): 3.9 ± 0.2
CCCN1C[C@H](COC)C[C@@H]2c3cccc4[nH]cc(c34)C[C@H]21 [D-6-n-propyl-8β-methoxymethylergoline methanesulfonate] | ≥ 2 h | 6 | 100 | 96 | Serum Prolactin Level (prolactin [3]; [4]): 2.4 ± 0.2
CCCN1C[C@H](CSC)C=C2c3cccc4[nH]cc(c34)C[C@H]21 [D-6-n-propyl-8β-methylmercaptomethyl-9-ergolene] | ≥ 2 h | 4 | 100 | 81 | –
CCCN1C[C@H](CSC)C[C@@H]2c3cccc4[nH]cc(c34)C[C@H]21 [D-6-n-propyl-8β-methylmercaptomethylergoline methanesulfonate] | – | – | – | – | responders at 1 mg/kg ([2]; IP, 1 mg./kg., aqueous solution): 100%; times more potent in the turning behavior test than the corresponding D-6-methyl derivative ([2]; from dose response curves): about 30 times; inhibition in vivo at 0.05 mg/kg (prolactin [3]; 50 mcg/kg IP, 1 hour after treatment, versus control of same experiment): 95%; times more potent as a prolactin inhibitor than the corresponding D-6-methyl compound (prolactin [3]; from dose response curves): about 100 times
CCCN1C[C@H](C[S+](C)[O-])C[C@@H]2c3cccc4[nH]cc(c34)C[C@H]21 (stereo partly drawn) [D-6-n-propyl-8β-methylsulfinylmethylergoline mesylate] | 1 h | 7 | 100 | 92 | –
CC(C)[C@H]1C(=O)N2CCC[C@H]2[C@]2(O)O[C@](NC(=O)[C@@H]3C[C@@H]4c5cccc6[nH]cc(c56)C[C@H]4N(C)C3)(C(C)C)C(=O)N12 [dihydroergocornine] | – | – | – | – | activity as prolactin inhibitors (in words) (prolactin [1]): activity as prolactin inhibitors
CC(C)[C@H]1C(=O)N2CCC[C@H]2[C@]2(O)O[C@](NC(=O)[C@@H]3C=C4c5cccc6[nH]cc(c56)C[C@H]4N(C)C3)(C(C)C)C(=O)N12 [ergocornine] | – | – | – | – | activity as prolactin inhibitors (in words) (prolactin [1]): activity as prolactin inhibitors; dopamine receptor stimulation (in words) (dopamine receptors): stimulate dopamine receptors
CN1C[C@H](CC#N)C[C@@H]2c3cccc4[nH]c(Cl)c(c34)C[C@H]21 [lergotrile] | – | – | – | – | usefulness in the treatment of Parkinsonism (in words) (Parkinsonism): useful in the treatment of Parkinsonism

Reference: US4166182A, “6-N-Propyl-8-methoxymethyl or methylmercaptomethylergolines and related compounds” (priority 1978, dated 1979)
